Measured values as given in patent publication US20130274258A1, “CARBAZOLE AND CARBOLINE DERIVATIVES, AND PREPARATION AND THERAPEUTIC APPLICATIONS THEREOF” (PHILIP MORRIS PRODUCTS S.A., priority 2010, published 2013).

Tested on: Jurkat cells
Assay: Jurkat cell viability, resazurin (Alamar Blue) assay
Assay type: cell-based
Details: Homo sapiens, Jurkat; control compounds of the tests; read-out: IC50 of control agents included in each test
Protocol: The compounds were tested for pharmacological activity. In each of the tests, each compound was tested at […] in duplicates. […] The percentage of response relative to the DMSO control was then calculated for the mean value of the duplicates of each test. The values of the three tests were finally averaged and the standard deviations calculated.
Jurkat cells (10'000 cells/well) were incubated in the presence of various concentrations of compounds, doxorubicin or staurosporine. Twenty-two hours later, cells were incubated with resazurin (20 μg/ml) for 4 hours and fluorescence was measured at 590 nm.

Row | SMILES | IC50 [nM]
1 | CN[C@@H]1C[C@H]2O[C@@](C)([C@@H]1OC)n1c3ccccc3c3c4c(c5c6ccccc6n2c5c31)C(=O)NC4 [staurosporine, reference compound] | 31

Same assay, conditions: Homo sapiens; Jurkat cells, 22 h then resazurin 4 h; three experiments in duplicates; read-out: IC50

Row | SMILES | IC50 [nM]
2 | Cc1nccc2c1[nH]c1ccc(-c3cccc(-n4cccn4)c3)cc12 [Example E59, 6-(3-(1H-pyrazol-1-yl)phenyl)-1-methyl-9H-pyrido[3,4-b]indole] | 913
3 | C=CCn1c2ccc(-c3ccc4c(c3)CCO4)cc2c2ccnc(C)c21 [Example C11] | > 10000
4 | Cc1nccc2c1[nH]c1ccc(-c3cccc(C(=O)NCCO)c3)cc12 [Example E48, N-(2-hydroxyethyl)-3-(1-methyl-9H-pyrido[3,4-b]indol-6-yl)benzamide] | 627
5 | Cc1cccc2c1[nH]c1ccc(-c3ccc4c(c3)CCO4)cc12 [Example E58, 6-(2,3-dihydrobenzofuran-5-yl)-1-methyl-9H-carbazole] | 3750
6 | Cc1nccc2c1[nH]c1ccc(-c3cncnc3)cc12 [Example C8, 6-(pyrimidin-5-yl)-1-methyl-9H-pyrido[3,4-b]indole] | 27800
7 | Cc1nccc2c1[nH]c1ccc(-c3ccccc3F)cc12 [Example E4, 6-(2-fluorophenyl)-1-methyl-9H-pyrido[3,4-b]indole] | 4070
8 | CC(=O)OCc1cc(COC(C)=O)cc(-c2ccc3[nH]c4c(C)nccc4c3c2)c1 [Example E16, 6-(3,5-bis(acetoxymethyl)phenyl)-1-methyl-9H-pyrido[3,4-b]indole] | 52
9 | Cc1nccc2c1[nH]c1ccc(-c3cccc(C(N)=O)c3)cc12 [Example E12, 6-(3-aminocarbonylphenyl)-1-methyl-9H-pyrido[3,4-b]indole] | 46
10 | CCc1nccc2c1[nH]c1ccc(-c3ccc4c(c3)CCO4)cc12 [Example E37, 6-(2,3-dihydrobenzofuran-5-yl)-1-ethyl-9H-pyrido[3,4-b]indole] | 4
11 | CCc1nccc2c1[nH]c1ccc(-c3cccc(COCCOC)c3)cc12 [Example E43, 6-(3-((2-methoxyethoxy)methyl)phenyl)-1-ethyl 9H-pyrido[3,4-b]indole] | 340
12 | CCc1nccc2c1[nH]c1ccc(-c3cccc(COC)c3)cc12 [Example E40, 6-(3-(methoxymethyl)phenyl)-1-ethyl 9H-pyrido[3,4-b]indole] | 2880
13 | FC(F)(F)c1nccc2c1[nH]c1ccc(-c3ccc4c(c3)CCO4)cc12 [Example E36, 6-(2,3-dihydrobenzofuran-5-yl)-1-trifluoromethyl-9H-pyrido[3,4-b]indole] | 96
14 | Cc1nccc2c1[nH]c1ccc(-c3ccc4c(c3)OCO4)cc12 [Example E30, 6-(benzo[d][1,3]dioxol-5-yl)-1-methyl-9H-pyrido[3,4-b]indole] | 490
15 | Cc1nccc2c1[nH]c1ccc(-c3cccc(CC#N)c3)cc12 [Example E23, 6-(3-cyanomethylphenyl)-1-methyl-9H-pyrido[3,4-b]indole] | 64
16 | Cc1ccc(-c2ccc3[nH]c4c(C)nccc4c3c2)o1 [Example E28, 6-(5-methylfuran-2-yl)-1-methyl-9H-pyrido[3,4-b]indole] | 130
17 | Cc1nccc2c1[nH]c1ccc(-c3ccc4c(c3)CCCO4)cc12 [Example E54, 6-(chroman-6-yl)-1-methyl-9H-pyrido[3,4-b]indole] | 53
18 | COC(=O)c1cccc(-c2ccc3[nH]c4c(C)nccc4c3c2)c1 [Example E14, 6-(3-methoxycarbonylphenyl)-1-methyl-9H-pyrido[3,4-b]indole] | 7230
19 | CCc1nccc2c3cc(-c4cccc(C(N)=O)c4)ccc3n(C)c12 [Example E50, 3-(1-ethyl-9-methyl-9H-pyrido[3,4-b]indol-6-yl)benzamide] | 16
20 | CC(=O)NCc1cccc(-c2ccc3[nH]c4c(C)nccc4c3c2)c1 [Example E11, 6-(3-(acetamidomethyl)phenyl)-1-methyl-9H-pyrido[3,4-b]indole] | 34
21 | Cc1nccc2c1[nH]c1ccc(-c3cccc(CNC(=O)N4CCN(C)CC4)c3)cc12 [Example E49] | 225
22 | Cc1nccc2c1[nH]c1ccc(-c3cccc(N(C)C)c3)cc12 [Example C5, 6-(3-(N,N-dimethylamino)phenyl)-1-methyl-9H-pyrido[3,4-b]indole] | 11500
23 | Cc1nccc2c1[nH]c1ccc(-c3ccc(C=O)o3)cc12 [Example E31, 6-(5-formylfuran-2-yl)-1-methyl-9H-pyrido[3,4-b]indole] | 2290
24 | Cc1nccc2c1[nH]c1ccc(-c3cccc(N)c3)cc12 [Example E33, 6-(3-aminophenyl)-1-methyl-9H-pyrido[3,4-b]indole] | 96

Row | SMILES | IC50 [nM]
25 | Cc1nccc2c1[nH]c1ccc(-c3cc(C#N)ccc3F)cc12 [Example E24, 6-(5-cyano-2-fluorophenyl)-1-methyl-9H-pyrido[3,4-b]indole] | 968
26 | CC(C)c1nccc2c1[nH]c1ccc(-c3ccc4c(c3)CCO4)cc12 [Example E39, 6-(2,3-dihydrobenzofuran-5-yl)-1-isopropyl-9H-pyrido[3,4-b]indole] | 302
27 | Cc1nccc2c1[nH]c1ccc(-c3cccc(CNS(C)(=O)=O)c3)cc12 [Example E45] | 52
28 | CCc1nccc2c1[nH]c1ccc(-c3cccc(NC(C)=O)c3)cc12 [Example E52, N-(3-(1-ethyl-9H-pyrido[3,4-b]indol-6-yl)phenyl)acetamide] | 18
29 | Cc1nccc2c1[nH]c1ccc(-c3cccc(F)c3)cc12 [Example E5, 6-(3-fluorophenyl)-1-methyl-9H-pyrido[3,4-b]indole] | 567
30 | Cc1nccc2c1[nH]c1ccc(-c3ccc4[nH]ccc4c3)cc12 [Example E26, 6-(1H-indol-5-yl)-1-methyl-9H-pyrido[3,4-b]indole] | 374
31 | CCCc1nccc2c1[nH]c1ccc(-c3ccc4c(c3)CCO4)cc12 [Example E38, 6-(2,3-dihydrobenzofuran-5-yl)-1-propyl-9H-pyrido[3,4-b]indole] | 230
32 | CCCCCn1c2ccc(-c3ccc4c(c3)CCO4)cc2c2ccnc(C)c21 [Example C13] | > 10000
33 | Cc1cc(C)cc(-c2ccc3[nH]c4c(C)nccc4c3c2)c1 [Example E8, 6-(3,5-dimethylphenyl)-1-methyl-9H-pyrido[3,4-b]indole] | 128
34 | Cc1nccc2c1[nH]c1ccc(-c3cccc(CN)c3)cc12 [Example E10, 6-(3-(aminomethyl)phenyl)-1-methyl-9H-pyrido[3,4-b]indole] | 988
35 | COc1cncc(-c2ccc3[nH]c4c(C)nccc4c3c2)c1 [Example E53, 6-(5-methoxypyridin-3-yl)-1-methyl-9H-pyrido[3,4-b]indole] | 2610
36 | CCNC(=O)NCc1cccc(-c2ccc3[nH]c4c(C)nccc4c3c2)c1 [Example E41] | 1240
37 | Cc1ccccc1-c1ccc2[nH]c3c(C)nccc3c2c1 [Example C9, 6-(2-methylphenyl)-1-methyl-9H-pyrido[3,4-b]indole] | 41800
38 | Cc1nccc2c3cc(-c4ccc5c(c4)CCO5)ccc3n(Cc3ccccc3)c12 [Example C12] | > 10000
39 | Cc1nccc2c1[nH]c1ccc(-c3cccc(CN4CCN(C)CC4)c3)cc12 [Example E57, 6-(3-((4-methylpiperazin-1-yl)methyl)phenyl)-1-methyl 9H-pyrido[3,4-b]indole] | 200
40 | Cc1nccc2c1[nH]c1ccc(-c3ccc(CO)o3)cc12 [Example E32, 6-(5-hydroxymethylfuran-2-yl)-1-methyl-9H-pyrido[3,4-b]indole] | 3660
41 | CC(=O)c1cccc(-c2ccc3[nH]c4c(C)nccc4c3c2)c1 [Example E13, 6-(3-acetylphenyl)-1-methyl-9H-pyrido[3,4-b]indole] | 2030
42 | CC(=O)OCc1cccc(-c2ccc3[nH]c4c(C)nccc4c3c2)c1 [Example E15, 6-(3-(acetoxymethyl)phenyl)-1-methyl-9H-pyrido[3,4-b]indole] | 34
43 | Cc1nccc2c1[nH]c1ccc(-c3cccc(-c4ccco4)c3)cc12 [Example E55, 6-(3-(furan-2-yl)phenyl)-1-methyl-9H-pyrido[3,4-b]indole] | 2200
44 | Cc1nccc2c1[nH]c1ccc(-c3cccc(Cc4nn[nH]n4)c3)cc12 [Example E27, 6-(((2H-tetrazol-5-yl)methyl)phenyl)-1-methyl-9H-pyrido[3,4-b]indole] | 2200
45 | Cc1nccc2c1[nH]c1ccc(-c3cccc(O)c3)cc12 [Example E17, 6-(3-hydroxyphenyl)-1-methyl-9H-pyrido[3,4-b]indole] | 195
46 | Cc1nccc2c1[nH]c1ccc(-c3cccc(CN(C)C)c3)cc12 [Example E42, N,N-dimethyl-1-(3-(1-methyl-9H-pyrido[3,4-b]indol-6-yl)phenyl)methanamine] | 850

Same assay, conditions: Jurkat cells, 22 h then resazurin 4 h; three experiments in duplicates

Row | SMILES | IC50 (μM)
47 | Cc1nccc2c1[nH]c1ccc(-c3ccc(C(F)(F)F)cc3)cc12 [Example C3, 6-(4-(trifluoromethyl)phenyl)-1-methyl-9H-pyrido[3,4-b]indole] | not active
48 | COc1ccc(-c2ccc3[nH]c4c(C)nccc4c3c2)cc1 [Example C4, 6-(4-methoxyphenyl)-1-methyl-9H-pyrido[3,4-b]indole] | not active
49 | Cc1nccc2c1[nH]c1ccc(-c3cccc(CC(=O)O)c3)cc12 [Example C7, 6-(3-carboxymethylphenyl)-1-methyl-9H-pyrido[3,4-b]indole] | not active
50 | Cc1nccc2c1[nH]c1ccc(-c3ccc4ccccc4c3)cc12 [Example C1, 6-(naphthalen-2-yl)-1-methyl-9H-pyrido[3,4-b]indole] | not active
51 | Cc1nccc2c1[nH]c1ccc(-c3ccsc3)cc12 [Example C10, 6-(thiophen-3-yl)-1-methyl-9H-pyrido[3,4-b]indole] | not active
52 | Cc1nccc2c1[nH]c1ccc(-c3ccc(Cl)cc3)cc12 [Example C2, 6-(4-chlorophenyl)-1-methyl-9H-pyrido[3,4-b]indole] | not active
